This data set has as its system rodent carcinogenicity bioassays, tumor incidence. Briefly: CCRIS carcinogenicity studies. As to conditions: Species: RAT. Put shortly: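 NCI-built, expert-reviewed records of carcinogenicity and related test outcomes (mutagenicity, tumor promotion/inhibition) compiled from published and report sources, historical span 1985-2011, not updated.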

Active and inactive are the calls of the source. The rule behind the calls is not given here.

For `C=CCl`, the carcinogen call was “inactive; negative” (Strain/Sex: SPRAGUE-DAWLEY/FEMALE, Route: INHALATION, Dose: 0, 6000, 10000 PPM IN AIR 4 HR/D 1 D/WK FOR 25 WK (STUDY DURATION: LIFETIME), Dose: 0, 6000, 10000 PPM IN AIR 4 HR/D 1 D/WK FOR 25 WK (STUDY DURATION: LIFETIME), Tumor Site: Type of Lesion: [BRAIN WAS ONLY SITE EVALUATED]); “inactive; negative” (Strain/Sex: SPRAGUE-DAWLEY/FEMALE, Route: INHALATION, Dose: 0, 6000, 10000 PPM IN AIR 4 HR/D 5 D/WK FOR 5 WK (STUDY DURATION: LIFETIME), Dose: 0, 6000, 10000 PPM IN AIR 4 HR/D 5 D/WK FOR 5 WK (STUDY DURATION: LIFETIME), Tumor Site: Type of Lesion: [BRAIN WAS ONLY SITE EVALUATED]); “active; positive” (Strain/Sex: SPRAGUE-DAWLEY/MALE,FEMALE, Route: GAVAGE, Dose: 0, 3.33, 16.65, 50.0 MG/KG IN OLIVE OIL 1/D, 4-5 D/WK FOR 52 WK (STUDY DURATION: 136 WK), Dose: 0, 3.33, 16.65, 50.0 MG/KG IN OLIVE OIL 1/D, 4-5 D/WK FOR 52 WK (STUDY DURATION: 136 WK), Tumor Site: Type of Lesion: LIVER: ANGIOSARCOMA); “active; positive” (Strain/Sex: SPRAGUE-DAWLEY/MALE,FEMALE, Route: INHALATION, Dose: 0, 50-10000 PPM 4 HR/D, 5 D/WK FOR 52 WK (STUDY DURATION: 135 WK), Tumor Site: Type of Lesion: LIVER: ANGIOSARCOMA, NERVOUS SYSTEM: NEUROBLASTOMA, EAR (ZYMBAL GLAND): CARCINOMA, KIDNEY: NEPHROBLASTOMA, Tumor Site: Type of Lesion: LIVER: ANGIOSARCOMA, NERVOUS SYSTEM: NEUROBLASTOMA, EAR (ZYMBAL GLAND): CARCINOMA, KIDNEY: NEPHROBLASTOMA); “inactive; negative” (Strain/Sex: SPRAGUE-DAWLEY/MALE, Route: GAVAGE, Dose: 0, 0.03, 0.3, 1, 3.33, 16.65, 50 MG/KG BW IN OLIVE OIL 1/D 4-5 D/WK FOR 52-59 WK (STUDY DURATION: LIFETIME), Dose: 0, 0.03, 0.3, 1, 3.33, 16.65, 50 MG/KG BW IN OLIVE OIL 1/D 4-5 D/WK FOR 52-59 WK (STUDY DURATION: LIFETIME), Tumor Site: Type of Lesion: [BRAIN WAS ONLY SITE EVALUATED]); “active; positive” (Strain/Sex: SPRAGUE-DAWLEY/MALE, Route: INHALATION, Dose: 0, 600 PPM 4 HR/D, 5 D/WK FOR 1 YR (STUDY DURATION: 2.5 YR), Tumor Site: Type of Lesion: LIVER: HEPATOCELLULAR CARCINOMA, ANGIOSARCOMA). Further, the carcinogen call (Strain/Sex: SPRAGUE-DAWLEY/MALE, Route: INHALATION, Dose: 0, 2500 PPM 4 HR/D 5 D/WK FOR 7 WK THEN 7 HR/D 5 D/WK FOR 8 WK ADMINISTERED TO RAT EMBRYOS BEGINNING ON 12TH DAY OF GEST, Tumor Site: Type of Lesion: LIVER: HEPATOMA, ANGIOSARCOMA, BRAIN: NEUROBLASTOMA) is “active; positive”; the carcinogen call (Strain/Sex: SPRAGUE-DAWLEY/MALE, Route: INHALATION, Dose: 0, 2500 PPM 4 HR/D 5 D/WK FOR 7 WK THEN 7 HR/D 5 D/WK FOR 69 WK ADMINISTERED TO RAT EMBRYOS BEGINNING ON 12TH DAY OF GES, Tumor Site: Type of Lesion: BRAIN: NEUROBLASTOMA, LIVER, HEPATOCARCINOMA, ANGIOSARCOMA, Tumor Site: Type of Lesion: BRAIN: NEUROBLASTOMA, LIVER, HEPATOCARCINOMA, ANGIOSARCOMA) is “active; positive”; the carcinogen call (Strain/Sex: SPRAGUE-DAWLEY/MALE, Route: INHALATION, Dose: 0, 6000, 10000 PPM IN AIR 1 HR/D 4 D/WK FOR 25 WK (STUDY DURATION: LIFETIME), Dose: 0, 6000, 10000 PPM IN AIR 1 HR/D 4 D/WK FOR 25 WK (STUDY DURATION: LIFETIME), Tumor Site: Type of Lesion: [BRAIN WAS ONLY SITE EVALUATED]) is “inactive; negative”; the carcinogen call (Strain/Sex: SPRAGUE-DAWLEY/MALE, Route: INHALATION, Dose: 0, 6000, 10000 PPM IN AIR 4 HR/D 1 D/WK FOR 25 WK (STUDY DURATION: LIFETIME), Dose: 0, 6000, 10000 PPM IN AIR 4 HR/D 1 D/WK FOR 25 WK (STUDY DURATION: LIFETIME), Tumor Site: Type of Lesion: [BRAIN WAS ONLY SITE EVALUATED]) is “inactive; negative”; the carcinogen call (Strain/Sex: SPRAGUE-DAWLEY/MALE, Route: INHALATION, Dose: 0, 6000, 10000 PPM IN AIR 4 HR/D 5 D/WK FOR 5 WK (STUDY DURATION: LIFETIME), Dose: 0, 6000, 10000 PPM IN AIR 4 HR/D 5 D/WK FOR 5 WK (STUDY DURATION: LIFETIME), Tumor Site: Type of Lesion: [BRAIN WAS ONLY SITE EVALUATED]) is “inactive; negative”; the carcinogen call (Strain/Sex: SPRAGUE-DAWLEY, Route: ORAL, Tumor Site: Type of Lesion: LIVER) is “active; positive”. The carcinogen call runs as follows: (Strain/Sex: WISTAR/FEMALE, Route: ORAL, Dose: 0, 0.014, 0.13, 1.3 MG/KG/BW/D IN DIET FOR DURATION OF STUDY (STUDY DURATION: 150 WK), Dose: 0, 0.014, 0.13, 1.3 MG/KG/BW/D IN DIET FOR DURATION OF STUDY (STUDY DURATION: 150 WK), Tumor Site: Type of Lesion: LIVER: NEOPLASTIC NODULES) “active; positive”; (Strain/Sex: WISTAR/MALE, Route: INHALATION, Dose: 0, 1, 50, 250, 500, 2500, 6000, 10000 PPM 4 HR/D, 5 D/WK FOR 52 WK (STUDY DURATION: 134-165 WK), Dose: 0, 1, 50, 250, 500, 2500, 6000, 10000 PPM 4 HR/D, 5 D/WK FOR 52 WK (STUDY DURATION: 134-165 WK), Tumor Site: Type of Lesion: LIVER: ANGIOSARCOMA, NERVOUS SYSTEM: NEUROBLASTOMA) “active; positive”; (Strain/Sex: WISTAR/MALE, Route: ORAL, Dose: 0, 0.014, 0.13, 1.3 MG/KG/BW/D IN DIET FOR DURATION OF STUDY (STUDY DURATION: 149 WK), Dose: 0, 0.014, 0.13, 1.3 MG/KG/BW/D IN DIET FOR DURATION OF STUDY (STUDY DURATION: 149 WK), Tumor Site: Type of Lesion: LIVER: HEPATOCELLULAR CARCINOMA) “active; positive”.
